The text below walks through data of patent US7074831B2, “Compounds, methods for their preparation and use thereof” (Active Biotech AB, priority 2004, dated 2006).

The structures appear in SMILES notation. Where two headings read alike, the source gives them in different places.

The target of one series is recombinant human DHODH (Homo sapiens, UniProt Q02127). As to the kind of experiment: Inhibition assay of DHODH activity (DHO-driven reduction of DCIP). Type of series: biochemical. The procedure:
Inhibition of recombinant human DHODH was assayed by the dihydroorotate (DHO) driven reduction of dichloroindophenol (DCIP), (Bruneau et al., 1998). The standard assay mixture contained 0.4 μg/mL recombinant protein, 50 mM Tris pH8, 100 μM decylubiquinone, 1 mM KCN, 200 μM DCIP and 0.1% Triton X-100. Inhibitory compounds were added at 10 different concentrations and the enzyme reaction initiated by the addition of 500 μM DHO. The reaction was allowed to continue for 10 minutes before the reduction of DCIP was measured in a microtiterplate reader as a decrease in absorbance at 650 nm. The IC50 values (concentration of inhibitor required for 50% inhibition) for each compound were calculated from the obtained dose response curves.

For series [1], the system named is human T lymphoblast cell line (Jurkat). As to the kind of experiment: Inhibition of T-cell proliferation (3H-TdR incorporation). Type of series: cell-based. The conditions noted are these: Jurkat cells; for IC50: 3 days, read-out: Inhibition of T-cell proliferation in vitro. IC50. As for the experimental part:
Inhibition of T cell proliferation was studied in a functional assay. A human T lymphoblast cell line (Jurkat) was cultured in the presence and absence of DHODH inhibiting compounds. Jurkat cells were seeded in microtiterplates at a concentration of 5×10^5/mL in RPMI 1640 growth media supplemented with ultraglutamin, 10% fetal calf serum, 1 mM sodium pyruvat, 10 mM HEPES and 0.1 mg/mL gentamycin. A dilution series of ten different concentrations of inhibitor was added to the wells and the plates were kept in a cell incubator for 3 days. At the beginning of the last 4 hours period, the cultures were pulsed with 10 μl/well 0.1Ci/mmol ^3H-TdR and then harvested on filter papers and counted with a β-counter. The IC50 values for each compound were calculated from the obtained dose response curves. Adding 50 μM uridine to the wells monitored the specificity for the mechanism. This reverses the antiproliferative effect by bypassing the DHODH enzyme using an external source of pyrimidine.
Inhibition of T cell proliferation was studied in a functional assay. Table 1 exemplifies the invention, without limiting the scope thereof. A human T lymphoblast cell line (Jurkat) was cultured in the presence of the compound to be screened. The IC50 value for each compound was calculated from the dose response curve. Adding uridine was used to monitor the specificity of the DHODH mechanism.

Series [2] can be described thus: Determination of pharmacokinetic properties in the mouse (cassette dosing). Type of series: in vivo. The conditions noted are these: female, SJL/N Tac, plasma, iv, i.v. administration, nominal dose 1 mg/kg/compound. As for the experimental part:
Female mice (SJL/N Tac) were given a single intravenous or oral dose of a mixture of 4 or 6 compounds per cassette (nominal dose: 1 mg/kg/compound). The test items were formulated in physiological saline/5% Cremophor® to a final concentration of each 0.1 mg/mL. Blood samples were collected from vena cava (terminal bleed) into sodium heparinised tubes. The dose formulations and plasma concentrations of each compound were determined by LC-MS/MS. The pharmacokinetic parameters were determined by non-compartmental analysis using WinNonlin Professional (version 4.0.1).
The clearance (CL) and half-life (t1/2) of representative compounds in the mouse following i.v. administration are shown in Table 2. Table 2 exemplifies the invention, without limiting the scope thereof.

Sequence of recombinant human DHODH (Q02127 whole entry): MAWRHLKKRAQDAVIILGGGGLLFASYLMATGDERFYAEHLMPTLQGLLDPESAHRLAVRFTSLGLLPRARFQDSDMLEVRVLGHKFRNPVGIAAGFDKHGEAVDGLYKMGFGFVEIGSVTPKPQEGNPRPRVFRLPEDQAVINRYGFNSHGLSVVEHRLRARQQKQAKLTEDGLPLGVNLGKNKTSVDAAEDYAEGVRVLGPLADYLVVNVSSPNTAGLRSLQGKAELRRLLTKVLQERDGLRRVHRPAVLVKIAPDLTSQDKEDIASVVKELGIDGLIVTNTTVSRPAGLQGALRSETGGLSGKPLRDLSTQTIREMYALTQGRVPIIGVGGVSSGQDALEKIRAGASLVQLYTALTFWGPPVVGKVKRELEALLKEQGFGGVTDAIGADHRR

In the case of `COc1ccc(OC)c(COc2ccc(O)c(C(=O)O)c2)c1` [5-(2,5-dimethoxy-benzyloxy)-2-hydroxy-benzoic acid], the “DHODH inhibition (in words)” value at recombinant human DHODH is “inactive”.
For `CCCNc1ccccc1Sc1ccc(NC(=O)CC)c(C(=O)O)c1` [Compound AA, 2-propionylamino-5-(2-propylamino-phenylsulfanyl)-benzoic acid], in series [1] (Homo sapiens, 72 h), the IC50 was 0.04 µM.
For `CCCN(CCC)c1ccccc1Oc1ccc(NC(=O)CC)c(C(=O)O)c1` [Compound AB, 5-(2-dipropylamino-phenoxy)-2-propionylamino-benzioc acid], in series [1], the IC50 came to 0.15 µM.
Regarding `CCC(=O)Nc1ccc(OCc2ccccc2OC(F)(F)F)cc1C(=O)O` [Compound AC, 2-propionylamino-5-(2-trifluoromethoxy-benzyloxy)-benzoic acid], the IC50 in series [1] (Homo sapiens, 72 h) stood at 0.3 µM.
`CCC(=O)Nc1ccc(COc2ccccc2OC(F)(F)F)cc1C(=O)O` [Compound AD, 2-propionylamino-5-(2-trifluoromethoxy-phenoxymethyl)-benzoic acid]: the IC50 in series [1] (Homo sapiens, 72 h) amounted to 0.24 µM.
As for `CCC(=O)Nc1ccc(Sc2ccccc2OC(F)(F)F)cc1C(=O)O` [Compound AE, 2-propionylamino-5-(2-trifluoromethoxy-phenylsulfanyl)-benzioc acid], the IC50 in series [1] was 0.39 µM.
As for `CC(=O)Nc1ccc(CCc2ccccc2)cc1C(=O)O` [Compound AF, 2-Acetylamino-5-phenethyl-benzoic acid, reference compound], in series [2], the clearance (as a rule, the rate of elimination divided by the concentration) is 0.97 L/h/kg and the half-life – broadly, the time in which the quantity being followed falls by half – was 0.29 h.
As to `CCC(=O)Nc1ccc(/C=C/c2ccccc2)cc1C(=O)O` [Compound AG, 2-Propionylamino-5-[(E)-styryl]-benzoic acid], in series [2], the clearance was 0.12 L/h/kg and the half-life is 10 h.
For the compound `CCC(=O)Nc1ccc(Cc2ccccc2)cc1C(=O)O` [Compound AH, 5-Benzyl-2-propionylamino-benzoic acid], in series [2], the clearance is 0.018 L/h/kg and the half-life is 6.6 h.
In the case of `COc1ccc(OC)c(COc2ccc(NC(C)=O)c(C(=O)O)c2)c1` [Compound G, 2-acetylamino-5-(2,5-dimethoxy-benzyloxy)-benzoic acid, reference compound], in series [2], the clearance was 0.71 L/h/kg and the half-life was 0.3 h. In series [1] (Homo sapiens, 72 h), the IC50 came to 6.2 µM. For the same compound, the “inhibitory effect on T-cell proliferation (in words)” value (shortened to “inhibitory effect”) in series [1] is “only a weak inhibitory effect”.
Regarding `COc1ccc(OC)c(CCc2ccc(NC(C)=O)c(C(=O)O)c2)c1` [Compound H, 2-Acetylamino-5-[2-(2,5dimethoxy-phenyl)-ethyl]-benzoic acid, reference compound], the IC50 in series [1] (Homo sapiens, 72 h) amounted to 12 µM. In series [1], the “inhibitory effect” value is on record as “very weak inhibitory effect”.
As for `CCC(=O)Nc1ccc(CCc2ccccc2C(F)(F)F)cc1C(=O)O` [Compound J, 2-propionylamino-5-[2-(2-trifluoromethyl-phenyl)-ethyl]-benzoic acid, reference compound], the IC50 in series [1] (Homo sapiens, 72 h) was found to be 2.9 µM. Moreover, in series [1], the “inhibitory effect” value is on record as “weak antiproliferative effect”.
In series [2], `CCC(=O)Nc1ccc(NCc2ccccc2C(F)(F)F)cc1C(=O)O` [Compound K, 2-propionylamino-5-(2-trifluoromethyl-benzylamino)-benzoic acid] had a clearance of 0.07 L/h/kg and a half-life of 2.2 h. The IC50 in series [1] (Homo sapiens, 72 h) was 0.79 µM.
For `CCC(=O)Nc1ccc(Oc2ccccc2C(F)(F)F)cc1C(=O)O` [Compound L, 2-propionylamino-5-(2-trifluoromethyl-phenoxy)-benzoic acid], in that order: 0.015 L/h/kg, 3.1 h and 0.78 µM.
In series [2], `CCC(=O)Nc1ccc(OCc2ccccc2C(F)(F)F)cc1C(=O)O` [Compound M, 2-propionylamino-5-(2-trifluoromethyl-benzyloxy)-benzoic acid] gave a clearance of 0.11 L/h/kg and a half-life of 4.9 h. Besides, in series [1] (Homo sapiens, 72 h), the IC50 is 0.33 µM.
In series [2], `CCC(=O)Nc1ccc(COc2ccccc2C(F)(F)F)cc1C(=O)O` [Compound N, 2-propionylamino-5-(2-trifluoromethyl-phenoxymethyl)-benzoic acid] had a clearance of 0.14 L/h/kg and a half-life of 1.5 h. In series [1] (Homo sapiens, 72 h), the IC50 came to 0.52 µM.
In series [2], `CCC(=O)Nc1ccc(Sc2ccccc2C(F)(F)F)cc1C(=O)O` [Compound O, 2-propionylamino-5-(2-trifluoromethyl-phenylsulfanyl)-benzoic acid] gave a clearance of 0.033 L/h/kg and a half-life of 4.6 h. Also, the IC50 in series [1] (Homo sapiens, 72 h) stood at 0.25 µM.
Regarding `CCC(=O)Nc1ccc(CSc2ccccc2C(F)(F)F)cc1C(=O)O` [Compound P, 2-propionylamino-5-(2-trifluoromethyl-phenylsulfanylmethyl)-benzoic acid], the IC50 in series [1] (Homo sapiens, 72 h) amounted to 0.21 µM.
For the compound `CCC(=O)Nc1ccc(/C=C/c2ccccc2C(F)(F)F)cc1C(=O)O` [Compound Q], the IC50 in series [1] worked out at 0.11 µM.
For the compound `CCC(=O)Nc1ccc(/C=C/c2cccc(C(F)(F)F)c2)cc1C(=O)O` [Compound R], the IC50 in series [1] amounted to 0.45 µM.
As to `CCC(=O)Nc1ccc(Oc2cc(C(F)(F)F)cc(C(F)(F)F)c2)cc1C(=O)O` [Compound S, 5-(3,5-bis-trifluoromethyl-phenoxy)-2-propionylamino-benzoic acid], the IC50 in series [1] (Homo sapiens, 72 h) turned out to be 0.14 µM.
For the compound `CCCNc1ccccc1Oc1ccc(NC(=O)CC)c(C(=O)O)c1` [Compound T, 2-propionylamino-5-(2-propylamino-phenoxy)-benzoic acid], the IC50 in series [1] (Homo sapiens, 72 h) came to 0.24 µM.
The same measure, in the same setting: for `CCCNc1ccccc1COc1ccc(NC(=O)CC)c(C(=O)O)c1` [Compound U, 2-propionylamino-5-(2-propylamino-benzyloxy)-benzoic acid] the value was 0.11 µM.
